Tests used:
[1] = tested on: RjOrl: Swiss mice; test: Mouse 6 Hz (44 mA) psychomotor seizure test; assay type: in vivo; conditions: 300 mg/kg i.p.
Description: The 6 Hz Psychomotor Test, which detects anticonvulsant activity, follows that described by Brown et al. (J. Pharmacol. Exp. Ther. 107, 273-283, 1953).
Male RjOrl: Swiss mice, 5 weeks old, weighing 28-38 g at the beginning of the experiment. Animals were acclimatized to the test facility for at least 5 days after delivery and randomly housed in groups of 3-4 in macrolon cages on wood litter with free access to food and water.
Before transcorneal stimulation, a drop of tetracaine solution (2%) was applied on each eye of the mouse for local anesthesia. Between 1-10 minutes later, at the pre-treatment time specified for the test compound, the mice were administered a rectangular current (44 mA, rectangular pulse: 0.2 ms pulse width, 3 s duration, 6 Hz) via corneal electrodes connected to a constant current shock generator.
The number of seizures as reflected by forelimb clonus were recorded immediately after current administration. Forelimb clonus was scored as absent (0=no forelimb clonus), mild (1=clonus with one forelimb) and strong (2=clonus with both forelimbs).
[…] The experimenters were blinded to the treatment. The cages were randomly assigned to a treatment code, each designating one treatment group.
Compound I was administered intraperitoneally at 20 and 50 mg/kg, 30 minutes before the test, and at 100 and 200 mg/kg, 60 minutes before the test and were compared with the vehicle control (5% ethanol, 10% […], 85% physiological saline).
Valproate (300 mg/kg i.p.), administered 30 minutes before the test, was used as reference substance and was compared with the vehicle control (5% ethanol, 10% Kolliphor HS15, 85% physiological saline).
(§1) Test compound: Compound I dissolved in 5% ethanol, 10% Kolliphor HS15, 85% physiological saline.
(§2) Vehicle control: 5% ethanol, 10% Kolliphor HS15, 85% physiological saline.
Reference: Valproate (300 mg/kg), dissolved in 5% ethanol, 10% Kolliphor HS15, 85% physiological saline.
Data were assumed to be non-normally distributed based on validation data, therefore non-parametric tests were utilized. Quantitative data (scores) with the test substance were analyzed by comparing treated groups with the corresponding vehicle control using Kruskal-Wallis test with Dunn's multiple comparisons test when the Kruskal-Wallis Test was significant. Quantitative data with the reference substance was analysed using Mann-Whitney U test.

[2] = tested on: DBA/2 mice; test: DBA/2 mouse audiogenic seizure test; assay type: in vivo; conditions: 180 mg/kg i.p.
Description: The DBA/2 audiogenic seizure test, which detects anticonvulsant activity, follows that described by Dürmüller et al. (NeuroReport, vol. 4, no. 6, pages 683-686, 1993).
60 male DBA/2 mice (3-4 weeks old) were included in the experiment (weight range 8-11 g at the beginning of the experiment). Animals were acclimatized to the test facility for 1 day after delivery and randomly housed in groups of 5 in macrolon cages on wood litter with free access to food and water.
Mice were individually transferred (at 3-5 minutes intervals) from the preparation room into an adjacent experimental room and body temperature was measured using a rectal thermometer. Immediately after, they were placed in a Plexiglas jar (Diameter=40 cm; Height=35 cm) mounted with an electric bell. Upon activating the bell, the occurrences and latencies to wild running fits, clonic and tonic seizures were measured. Deaths were also recorded. The bell was activated until a tonic seizure occured or for a maximum of 60 seconds.
The experiment included 6 groups (10 mice were studied per group). Experimenters were blinded to the treatment groups.
The test substance was evaluated at 4 doses, administered i.p. (10 mL/kg) 30 or 60 minutes before the test, and compared with a vehicle control group. Doses and pre-treatment times were based on previous pharmacokinetic data.
as §1, §2
Reference: Valproate (180 mg/kg), dissolved in 5% ethanol, 10% Kolliphor HS15, 85% physiological saline.
Quantitative data (latencies) with the test substance were analyzed by comparing treated groups with vehicle control using Kruskal-Wallis test followed by Dunn's multiple comparisons test. Quantitative data with the reference substance were analyzed using Mann-Whitney U test.
Quantal data (frequencies) were analyzed by comparing treated groups with vehicle control using Fisher's Exact Probability tests.

[3] = tested on: mouse model of generalised seizure (tonic hind limb extensor convulsions); test: mini-MEST (maximal electroshock seizure threshold, minimal sample sizes) test in the mouse; conditions: 2.5 mg/kg i.p., 30 min post dose
Experimental: The maximal electroshock seizure threshold (MEST) test is widely utilized preclinically to evaluate pro- or anti-convulsant properties of test compounds (Loscher et al., 1991).
(§3) In the MEST test the ability of a drug to alter the seizure threshold current required to induce hind limb tonic extensor convulsions is measured according to an “up and down” method of shock titration (Kimball et al., 1957). An increase in seizure threshold is indicative of anti-convulsant effect.
(§4) The ability of a test compound to alter the stimulus intensity, expressed as current (mA), required to induce the presence of tonic hind limb extensor convulsions, is assessed in the MEST.
(§5) All animals were weighed at the beginning of the study and randomly assigned to treatment groups based on a mean distribution of body weight across groups.
The first animal within a treatment group was given a shock at the expected or estimated CC50 current. For subsequent animals, the current was lowered or raised depending on the convulsions outcome from the preceding animal in log scale intervals.
(§6) Data generated from each treatment group were used to calculate the CC50±SEM values for the treatment group.
Vehicle: (5% ethanol, 10% solutol in 85% Saline) was prepared as follows: 1 mL of ethanol, 2 mL of solutol were warmed to 60° C., in 17 mL of saline (1:2:17).
The test compound, described herein as Compound I, is as shown as Formula I. Test compound was administered at 50 mg/kg (i.p.) in a 1:2:17 ethanol:solutol:0.9% saline formulation.
(§7) The data for each treatment group were recorded as the number of +'s and 0's at each current level employed and this information is then used to calculate the CC50 value (current required for 50% of the animals to show seizure behaviour)±standard error.
(§8) Test compound effects were also calculated as percentage change in CC50 from the vehicle control group.
(§9) Significant difference between drug-treated animals and controls were assessed according to Litchfield and Wilcoxon (1949).

[4] = tested on: mouse model of generalised seizure (tonic hind limb extensor convulsions); test: Maximal electroshock seizure threshold (MEST) test in the mouse; conditions: 2.5 mg/kg i.p., 30 min post dose
Experimental: The efficacy of the novel resorcinol according to the compound of Formula I was tested in a mouse model of generalised seizure, the maximal electroshock seizure threshold (MEST) test.
as §3, §4, §5
The first animal within a treatment group was given a shock at the expected or estimated CC50 current. For subsequent animals, the current was lowered or raised depending on the convulsions outcome from the preceding animal, in intervals of 5 mA.
as §6
Vehicle: (5% ethanol, 5% Kolliphor® EL, 90% Saline) was prepared as follows: 2 mL of ethanol, 2 mL of Kolliphor® EL were warmed to 60° C., in 36 mL of saline (1:1:18).
The test compound, described herein as Compound I, is as shown as Formula I. Test compound was administered at 1, 5, 20, 50, 100 and 200 mg/kg (i.p.) in a 1:2:17 ethanol:solutol:0.9% saline formulation.
as §7, §8, §9

[5] = 30 min before the test, bell maximum 60 seconds
[6] = 30 min before the test, listed as valproate

CCCC(CCC)C(=O)O [Valproate, reference compound]
Slight sedation (mice affected) [1]: One mouse out of the 15 tested
Forelimb clonus, Compared with Vehicle B (i.p.) % ([1]; 30 minutes before the test): −88%
Forelimb clonus, Compared with Vehicle B (i.p.) % ([1]; 30 minutes before the test, listed as valproate): −88%
Forelimb clonus (mean ± s.e.m.) ([1]; 30 minutes before the test, score 0-2): 0.1 ± 0.1
Adverse signs [2]: No adverse signs were noted
Clonic convulsion, Presence, % ([2]; 30 min before the test): 0%
Clonic convulsion, Presence, Compared with Vehicle (i.p.) % ([2]; 30 min before the test): −100%
Clonic convulsion, Presence, Total ([2]; 30 min before the test): 0/10
Death, Presence, % ([2]; 30 min before the test): 0%
Death, Presence, Compared with Vehicle (i.p.) % ([2]; 30 min before the test): −100%
Death, Presence, Total ([2]; 30 min before the test): 0/10
Tonic extension, Presence, % ([2]; 30 min before the test): 0%
Tonic extension, Presence, Compared with Vehicle (i.p.) % ([2]; 30 min before the test): −100%
Tonic extension, Presence, Total ([2]; 30 min before the test): 0/10
Wild running, Presence, % ([2]; 30 min before the test): 0%
Wild running, Presence, Compared with Vehicle (i.p.) % ([2]; 30 min before the test): −100%
Wild running, Presence, Total ([2]; 30 min before the test): 0/10
Clonic convulsion, Latency (s) Median [2, 5]: 60.0 s
Tonic extension, Latency (s) Median [2, 5]: 60.0 s
Wild running, Latency (s) Median [2, 5]: 60.0 s
Clonic convulsion, Presence, Compared with Vehicle (i.p.) % [2, 6]: −100%
Tonic extension, Presence, Compared with Vehicle (i.p.) % [2, 6]: −100%
Wild running, Presence, Compared with Vehicle (i.p.) % [2, 6]: −100%

CN1C(=O)CN=C(c2ccccc2)c2cc(Cl)ccc21 [Diazepam, diazepam, reference compound]
% change from vehicle (CC50) [3]: 279%
% change from vehicle (CC50) [4]: 449%
